Reference: patent publication US12172995B2, “Substituted indole and indazole compounds” (BRISTOL-MYERS SQUIBB COMPANY, priority 2018, dated 2024)

Experiments:
Assay type in all cases: cell-based
human TLR7 = target: T1, human TLR7 (Homo sapiens, UniProt Q9NYK1); test: TLR7 inhibition reporter assay (HEK-Blue SEAP); settings: HEK-Blue cells overexpressing human TLR7, stimulated with gardiquimod 7.5 μM, 22 hour incubation
T1 construct: host or cells: HEK-Blue cells
T1 sequence (Q9NYK1 27-1049): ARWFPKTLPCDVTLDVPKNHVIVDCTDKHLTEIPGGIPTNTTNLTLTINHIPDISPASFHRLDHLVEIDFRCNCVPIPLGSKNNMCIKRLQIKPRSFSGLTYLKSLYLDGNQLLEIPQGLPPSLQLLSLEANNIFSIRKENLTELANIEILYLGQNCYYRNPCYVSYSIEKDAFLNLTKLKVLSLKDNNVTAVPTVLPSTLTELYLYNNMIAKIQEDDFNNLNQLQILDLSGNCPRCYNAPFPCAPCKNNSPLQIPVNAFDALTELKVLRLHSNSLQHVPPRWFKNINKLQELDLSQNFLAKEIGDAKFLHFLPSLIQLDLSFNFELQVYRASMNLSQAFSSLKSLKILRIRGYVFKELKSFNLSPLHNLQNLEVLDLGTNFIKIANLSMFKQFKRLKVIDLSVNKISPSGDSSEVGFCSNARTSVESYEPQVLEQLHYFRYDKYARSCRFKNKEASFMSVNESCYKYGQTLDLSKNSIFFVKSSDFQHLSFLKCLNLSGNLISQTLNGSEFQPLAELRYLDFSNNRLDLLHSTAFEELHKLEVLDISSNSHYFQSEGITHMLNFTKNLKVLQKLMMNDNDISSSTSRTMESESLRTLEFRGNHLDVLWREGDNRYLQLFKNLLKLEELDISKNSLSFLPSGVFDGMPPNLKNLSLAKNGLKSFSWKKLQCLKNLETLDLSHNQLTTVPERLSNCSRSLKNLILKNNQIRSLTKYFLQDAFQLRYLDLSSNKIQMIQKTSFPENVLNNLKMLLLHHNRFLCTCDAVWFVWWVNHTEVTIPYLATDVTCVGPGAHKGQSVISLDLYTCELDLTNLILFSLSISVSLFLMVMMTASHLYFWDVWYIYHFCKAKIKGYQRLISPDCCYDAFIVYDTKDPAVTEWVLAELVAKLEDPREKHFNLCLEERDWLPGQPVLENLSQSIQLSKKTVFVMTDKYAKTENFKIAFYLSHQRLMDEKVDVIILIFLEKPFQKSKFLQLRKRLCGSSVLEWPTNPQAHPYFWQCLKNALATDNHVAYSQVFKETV
Procedure, shortened: (§1)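 Cells are seeded, given test compound across 0.05 nM to 50 μM, and after 30 min at room temperature stimulated with the receptor's agonist (gardiquimod 7.5 μM, R848 15.9 μM or ODN2006 5 nM for TLR7, 8, 9). SEAP is measured after 22 h at 37 °C.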

human TLR8 = target: T2, human TLR8 (Homo sapiens, UniProt Q9NR97); test: TLR8 inhibition reporter assay (HEK-Blue SEAP); settings: HEK-Blue cells overexpressing human TLR8, stimulated with R848 15.9 μM, 22 hour incubation
T2 construct: host or cells: HEK-Blue cells
T2 sequence (Q9NR97 27-1041): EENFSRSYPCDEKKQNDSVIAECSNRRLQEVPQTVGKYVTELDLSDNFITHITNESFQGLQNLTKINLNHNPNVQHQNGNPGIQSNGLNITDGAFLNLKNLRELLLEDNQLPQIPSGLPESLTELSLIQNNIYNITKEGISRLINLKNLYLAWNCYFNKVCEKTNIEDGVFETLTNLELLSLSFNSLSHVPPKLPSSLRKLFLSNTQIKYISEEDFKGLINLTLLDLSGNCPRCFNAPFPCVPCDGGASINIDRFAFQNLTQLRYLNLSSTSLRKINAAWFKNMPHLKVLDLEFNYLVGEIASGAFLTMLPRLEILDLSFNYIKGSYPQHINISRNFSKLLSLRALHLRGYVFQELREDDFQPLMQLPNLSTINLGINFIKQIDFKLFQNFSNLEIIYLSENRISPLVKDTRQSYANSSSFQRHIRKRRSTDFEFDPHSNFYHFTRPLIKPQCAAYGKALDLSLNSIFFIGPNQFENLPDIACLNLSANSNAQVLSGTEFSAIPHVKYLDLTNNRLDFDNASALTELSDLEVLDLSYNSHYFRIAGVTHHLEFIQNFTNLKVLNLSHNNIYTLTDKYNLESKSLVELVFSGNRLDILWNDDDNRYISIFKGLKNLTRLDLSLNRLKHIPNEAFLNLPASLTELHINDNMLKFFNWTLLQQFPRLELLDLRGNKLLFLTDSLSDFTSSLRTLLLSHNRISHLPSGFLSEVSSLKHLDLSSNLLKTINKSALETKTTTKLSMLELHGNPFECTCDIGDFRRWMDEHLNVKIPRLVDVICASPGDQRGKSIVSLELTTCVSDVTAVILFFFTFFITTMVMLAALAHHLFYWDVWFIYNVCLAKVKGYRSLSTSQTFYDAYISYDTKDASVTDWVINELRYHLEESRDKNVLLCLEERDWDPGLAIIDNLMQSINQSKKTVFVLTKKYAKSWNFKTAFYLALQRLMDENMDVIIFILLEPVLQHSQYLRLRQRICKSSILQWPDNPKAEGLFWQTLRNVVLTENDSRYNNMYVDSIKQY
Procedure, shortened: as §1

human TLR9 = target: T3, human TLR9 (Homo sapiens, UniProt Q9NR96); test: TLR9 inhibition reporter assay (HEK-Blue SEAP); settings: HEK-Blue cells overexpressing human TLR9, stimulated with ODN2006 5 nM, 22 hour incubation
T3 construct: host or cells: HEK-Blue cells
T3 sequence (Q9NR96 26-1032): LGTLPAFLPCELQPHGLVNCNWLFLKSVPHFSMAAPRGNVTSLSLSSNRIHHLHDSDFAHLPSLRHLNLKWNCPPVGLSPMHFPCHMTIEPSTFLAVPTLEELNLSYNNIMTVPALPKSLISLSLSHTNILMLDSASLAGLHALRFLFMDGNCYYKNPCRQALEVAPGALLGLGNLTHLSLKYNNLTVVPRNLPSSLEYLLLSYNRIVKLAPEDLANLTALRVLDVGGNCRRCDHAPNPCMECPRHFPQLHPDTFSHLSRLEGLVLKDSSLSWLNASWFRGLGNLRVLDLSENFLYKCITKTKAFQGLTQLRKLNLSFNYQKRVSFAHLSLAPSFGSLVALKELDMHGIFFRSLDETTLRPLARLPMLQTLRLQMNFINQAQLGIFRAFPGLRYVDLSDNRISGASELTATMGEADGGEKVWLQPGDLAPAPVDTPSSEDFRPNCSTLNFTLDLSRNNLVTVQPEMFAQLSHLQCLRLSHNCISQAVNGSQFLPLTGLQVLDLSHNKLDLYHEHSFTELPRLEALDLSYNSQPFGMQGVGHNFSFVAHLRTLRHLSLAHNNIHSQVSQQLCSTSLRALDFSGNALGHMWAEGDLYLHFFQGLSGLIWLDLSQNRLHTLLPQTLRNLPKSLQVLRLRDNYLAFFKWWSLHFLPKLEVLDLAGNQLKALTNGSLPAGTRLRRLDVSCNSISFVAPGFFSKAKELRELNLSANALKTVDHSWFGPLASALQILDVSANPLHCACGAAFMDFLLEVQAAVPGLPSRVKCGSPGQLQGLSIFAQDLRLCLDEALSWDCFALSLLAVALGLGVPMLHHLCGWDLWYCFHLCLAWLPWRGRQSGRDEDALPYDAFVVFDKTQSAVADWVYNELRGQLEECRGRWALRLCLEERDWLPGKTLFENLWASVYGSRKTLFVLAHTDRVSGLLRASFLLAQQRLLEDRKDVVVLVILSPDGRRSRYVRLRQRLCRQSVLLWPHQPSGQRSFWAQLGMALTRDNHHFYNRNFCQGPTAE
Procedure, shortened: as §1

| IC50 (human TLR7) | IC50 (human TLR8) | IC50 (human TLR9) | Structure (SMILES) |
| --- | --- | --- | --- |
| 23.4 nM | 4.6 nM | 13000 nM | Cc1cc2c(C3CCCN(C(=O)CN(C)C)C3)n[nH]c2cc1-c1cc(C)c2ncnn2c1 (stereo not drawn) [Example 40, 2-(dimethylamino)-1-(3-(5-methyl-6-(8-methyl-[1,2,4]triazolo[1,5-a]pyridin-6-yl)-1H-indazol-3-yl)piperidin-1-yl)ethan-1-one] |
| 0.8 nM | 0.4 nM | 7480 nM | CCOC1CN(C2CCC(c3n[nH]c4cc(-c5cc(C)c6ncnn6c5)c(C(C)C)cc34)CC2)C1 (single isomer, unassigned) [Example 149, 6-(3-(4-(3-ethoxyazetidin-1-yl)cyclohexyl)-5-isopropyl-1H-indazol-6-yl)-8-methyl-[1,2,4]triazolo[1,5-a]pyridine] |
| 68 nM | 2.5 nM | 13000 nM | Cc1cc2c(C3CCN(CCS(C)(=O)=O)CC3)n[nH]c2cc1-c1cc(C)c2ncnn2c1 [Example 68, 8-methyl-6-(5-methyl-3-(1-(2-(methylsulfonyl)ethyl)piperidin-4-yl)-1H-indazol-6-yl)-[1,2,4]triazolo[1,5-a]pyridine] |
| 5.3 nM | 2.9 nM | 3720 nM | COc1cc(-c2cc3[nH]nc(C4CCC(N(C)C)CC4)c3cc2C(C)C)cn2ncnc12 (single isomer, unassigned) [Example 141, 4-(5-isopropyl-6-(8-methoxy-[1,2,4]triazolo[1,5-a]pyridin-6-yl)-1H-indazol-3-yl)-N,N-dimethylcyclohexan-1-amine] |
| 39.8 nM | 0.6 nM | 6120 nM | Cc1cc2c(C3CCC(NCCS(C)(=O)=O)CC3)n[nH]c2cc1-c1cc(C)c2ncnn2c1 (stereo not drawn) [Example 31, 4-(5-methyl-6-(8-methyl-[1,2,4]triazolo[1,5-a]pyridin-6-yl)-1H-indazol-3-yl)-N-(2-(methylsulfonyl)ethyl)cyclohexan-1-amine] |
| 49.3 nM | 15.5 nM | 4940 nM | Cc1cc2c(C3CCNCC3)n[nH]c2cc1-c1cc(C)c2nnnn2c1 [Example 74, 8-methyl-6-(5-methyl-3-(piperidin-4-yl)-1H-indazol-6-yl) tetrazolo[1,5-a]pyridine] |
| 5.8 nM | 0.12 nM | 11900 nM | Cc1cc(-c2cc3[nH]nc(N4CCN(C(C)C)CC4)c3cc2C(C)C)cn2ncnc12 [Example 208, 6-(5-isopropyl-3-(4-isopropylpiperazin-1-yl)-1H-indazol-6-yl)-8-methyl-[1,2,4]triazolo[1,5-a]pyridine] |
| 226 nM | 218 nM | 4370 nM | Cc1cc(-c2ccc3c(C(=O)NC4CCNCC4)n[nH]c3c2)cn2ncnc12 [Example 199, 6-(8-methyl-[1,2,4]triazolo[1,5-a]pyridin-6-yl)-N-(piperidin-4-yl)-1H-indazole-3-carboxamide] |
| 6.1 nM | 0.5 nM | 1620 nM | Cc1cc(-c2cc(C)c3ncnn3c2)cc2[nH]nc(OC3CCN(C4CCOCC4)CC3)c12 [Example 178, 8-methyl-6-(4-methyl-3-((1-(tetrahydro-2H-pyran-4-yl)piperidin-4-yl)oxy)-1H-indazol-6-yl)-[1,2,4]triazolo[1,5-a]pyridine] |
| 1 nM | 0.4 nM | 10900 nM | Cc1cc(-c2cc3[nH]nc(C4CCNCC4)c3cc2C(C)C)cn2ncnc12 [Example 102, 6-(5-isopropyl-3-(piperidin-4-yl)-1H-indazol-6-yl)-8-methyl-[1,2,4]triazolo[1,5-a]pyridine] |
| 3.2 nM | 0.8 nM | 13700 nM | Cc1cc(-c2cc3[nH]nc(C4CCN(C(=O)CCN(C)C)CC4)c3cc2C(C)C)cn2ncnc12 [Example 122, 3-(dimethylamino)-1-(4-(5-isopropyl-6-(8-methyl-[1,2,4]triazolo[1,5-a]pyridin-6-yl)-1H-indazol-3-yl)piperidin-1-yl)propan-1-one] |
| 11.1 nM | 10.9 nM | 2190 nM | Cc1cc(-c2cc(C)c3ncnn3c2)cc2[nH]nc(C3CCN(CC(C)(C)O)CC3)c12 [Example 77, 2-methyl-1-(4-(4-methyl-6-(8-methyl-[1,2,4]triazolo[1,5-a]pyridin-6-yl)-1H-indazol-3-yl)piperidin-1-yl)propan-2-ol] |
| 2.7 nM | 0.5 nM | 928 nM | Cc1cc(-c2cc(C)c3ncnn3c2)cc2[nH]nc(OC3CCN(C)CC3)c12 [Example 177, 8-methyl-6-(4-methyl-3-((1-methylpiperidin-4-yl)oxy)-1H-indazol-6-yl)-[1,2,4]triazolo[1,5-a]pyridine] |
| 31.8 nM | 11.2 nM | 1780 nM | COc1cc2c(C3CCNCC3)n[nH]c2cc1-c1cc(C)c2ncnn2c1 [Example 19, 6-(5-methoxy-3-(piperidin-4-yl)-1H-indazol-6-yl)-8-methyl-[1,2,4]triazolo[1,5-a]pyridine] |
